Laboratory results: patent US11590116B2 (THERAVANCE BIOPHARMA R&D IP, LLC, priority 2019, dated 2023)

Columns and labels:
[1] = tested on: TGF-β-stimulated SMAD3 phosphorylation in BEAS-2B cells; test: Cellular ALK5 potency assay, inhibition of TGF-β stimulated pSMAD3 formation in BEAS-2B cells; type: cell-based; settings: Homo sapiens; inhibition of TGF-β stimulated pSMAD3 formation, BEAS-2B cells; read-out: BEAS2B pIC50 (converted)
Method in brief: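 AlphaLISA pSMAD3 read-out, beads incubated overnight. Human BEAS-2B cells: 1 h compound preincubation (37 °C, 5% CO2), then 30 min TGF-β at 10 ng/mL final, immediate lysis. Values are pIC50 relative to stimulated, compound-free baseline.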

[2] = target: T1, recombinant human ALK5 (TGF-βR1) protein (Homo sapiens, UniProt P36897); test: Biochemical ALK5 (TGF-βR1) assay to measure pKi (LANCE Ultra ULight kinase assay); settings: apparent pKi from pIC50 by Cheng-Prusoff, read-out: ALK5 pKi (converted)
T1 construct: purchased Life Technologies PR9075A
T1 sequence (P36897 34-503): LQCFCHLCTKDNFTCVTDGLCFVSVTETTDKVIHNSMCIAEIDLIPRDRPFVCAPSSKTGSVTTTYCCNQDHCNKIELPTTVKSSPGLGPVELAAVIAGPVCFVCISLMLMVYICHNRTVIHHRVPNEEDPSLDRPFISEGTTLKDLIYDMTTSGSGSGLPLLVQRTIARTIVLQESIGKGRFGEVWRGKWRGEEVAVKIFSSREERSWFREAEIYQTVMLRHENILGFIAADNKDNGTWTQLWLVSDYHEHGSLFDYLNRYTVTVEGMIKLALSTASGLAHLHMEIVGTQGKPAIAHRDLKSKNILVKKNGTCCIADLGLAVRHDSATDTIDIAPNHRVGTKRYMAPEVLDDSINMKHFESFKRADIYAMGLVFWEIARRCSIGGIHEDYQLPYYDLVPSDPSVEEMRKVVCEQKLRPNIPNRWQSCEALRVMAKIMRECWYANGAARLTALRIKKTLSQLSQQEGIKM
Method in brief: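 Dose range 10 μM–25 pM; enzyme + compound 60 min RT; ATP added (5× stock 125 μM, 2 mM DTT); 60 min 37 °C; stop with EDTA + Eu anti-phospho-Topo IIα Thr1342 Ab; TR-FRET ex 320/340, em 665 nm. 4-param pIC50 → pKi (Cheng-Prusoff).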

Row | Structure (SMILES) | IC50 [1] [nM] | Ki [2] [nM]
1 | Cc1cccc(-c2[nH]cnc2-c2ccc3ncc(-c4cnc5c(c4)CNCC5)cc3c2)n1 [Compound 77, 3-[6-[5-(6-methyl-2-pyridyl)-1H-imidazol-4-yl]-3-quinolyl]-5,6,7,8-tetrahydro-1,6-naphthyridine] | 25.1 to 158 | 0.0398 to 0.316
2 | Cc1cccc(-c2n[nH]cc2-c2ccc3ncc(N4CCOCC4)cc3n2)n1 [Compound 78, 4-[6-[3-(6-methyl-2-pyridyl)-1H-pyrazol-4-yl]-1,5-naphthyridin-3-yl]morpholine] | < 20 | < 0.0316
3 | CNCCn1cc(-c2cnc3ccc(-c4c(-c5ccc(F)c(C)n5)nc5ccccn45)cc3c2)cn1 [Compound 79, 2-[4-[6-[2-(5-fluoro-6-methyl-2-pyridyl)imidazo[1,2-a]pyridin-3-yl]-3-quinolyl]pyrazol-1-yl]-N-methyl-ethanamine] | 25.1 to 158 | 0.0398 to 0.316
4 | Cc1cccc(-c2n[nH]cc2-c2ccc3ncc(-c4cccs4)cc3n2)n1 [Compound 80, 2-[3-(6-methyl-2-pyridyl)-1H-pyrazol-4-yl]-7-(2-thienyl)-1,5-naphthyridine] | 25.1 to 158 | 0.0398 to 0.316
5 | Cc1cccc(-c2[nH]cnc2-c2ccc3ncc(C4=CC[C@H](N)CC4)cc3c2)n1 [Compound 81, (1R)-4-[6-[5-(6-methyl-2-pyridyl)-1H-imidazol-4-yl]-3-quinolyl]cyclohex-3-en-1-amine] | < 20 | < 0.0316
6 | Cc1cccc(-c2n[nH]cc2-c2ccc3ncc(N4CCC(N5CCN(C)CC5)CC4)cc3c2)n1 [Compound 82, 3-(4-(4-Methylpiperazin-1-yl)piperidin-1-yl)-6-(3-(6-methylpyridin-2-yl)-1H-pyrazol-4-yl)quinoline] | 25.1 to 158 | 0.0398 to 0.316
7 | Cc1cccc(-c2n[nH]cc2-c2ccc3ncc(-c4cc5n(n4)CCNC5)cc3n2)n1 [Compound 83, 2-[3-(6-methyl-2-pyridyl)-1H-pyrazol-4-yl]-7-(4,5,6,7-tetrahydropyrazolo[1,5-a]pyrazin-2-yl)-1,5-naphthyridine] | < 20 | < 0.0316
8 | Cc1nc(-c2nc3ccccn3c2-c2ccc3ncc(N4CCCNCC4)cc3n2)ccc1F [Compound 84, 7-(1,4-diazepan-1-yl)-2-[2-(5-fluoro-6-methyl-2-pyridyl)imidazo[1,2-a]pyridin-3-yl]-1,5-naphthyridine] | 25.1 to 158 | 0.0398 to 0.316
9 | Cc1cccc(-c2[nH]ncc2-c2ccc3ncc(C(=O)N(C)C)cc3n2)n1 [Compound 85, N,N-dimethyl-6-[5-(6-methyl-2-pyridyl)-1H-pyrazol-4-yl]-1,5-naphthyridine-3-carboxamide] | 200 to 1260 | 3.98 to 31.6
10 | Cc1cccc(-c2nnn(C)c2-c2ccc3ncc(N4CCNCC4)cc3c2)n1 [Compound 86, 6-[3-methyl-5-(6-methyl-2-pyridyl)triazol-4-yl]-3-piperazin-1-yl-quinoline] | 25.1 to 158 | 0.398 to 3.16
11 | COc1[nH]nc(-c2cccc(C)n2)c1-c1ccc2ncc(NCCN3CCOCC3)cc2n1 [Compound 87, 6-[5-methoxy-3-(6-methyl-2-pyridyl)-1H-pyrazol-4-yl]-N-(2-morpholinoethyl)-1,5-naphthyridin-3-amine] | 200 to 1260 | 0.398 to 3.16
12 | Cc1cccc(-c2n[nH]cc2-c2ccc3ncc(C4=CCCC4)cc3n2)n1 [Compound 88, 7-(cyclopenten-1-yl)-2-[3-(6-methyl-2-pyridyl)-1H-pyrazol-4-yl]-1,5-naphthyridine] | < 20 | < 0.0316
13 | Cc1nc(-c2nc3ccccn3c2-c2ccc3ncc(-c4cnn5c4CNCC5)cc3n2)ccc1F [Compound 89, 2-[2-(5-fluoro-6-methyl-2-pyridyl)imidazo[1,2-a]pyridin-3-yl]-7-(4,5,6,7-tetrahydropyrazolo[1,5-a]pyrazin-3-yl)-1,5-naphthyridine] | 25.1 to 158 | 0.0398 to 0.316
14 | Cc1cccc(-c2n[nH]cc2-c2ccc3ncc(NCC(=O)N4CCOCC4)cc3n2)n1 [Compound 90, 2-[[6-[3-(6-methyl-2-pyridyl)-1H-pyrazol-4-yl]-1,5-naphthyridin-3-yl]amino]-1-morpholino-ethanone] | 25.1 to 158 | 0.398 to 3.16
15 | Cc1nc(-c2[nH]cnc2-c2ccc3ncc(-c4cn5c(n4)CNCC5)cc3n2)ccc1F [Compound 91, 2-[5-(5-fluoro-6-methyl-2-pyridyl)-1H-imidazol-4-yl]-7-(5,6,7,8-tetrahydroimidazo[1,2-a]pyrazin-2-yl)-1,5-naphthyridine] | 25.1 to 158 | 0.0398 to 0.316
16 | CCc1cccc(-c2n[nH]cc2-c2ccc3ncc(-c4ccn(CCNC)n4)cc3n2)n1 [Compound 92, 2-(3-(6-(3-(6-ethylpyridin-2-yl)-1H-pyrazol-4-yl)-1,5-naphthyridin-3-yl)-1H-pyrazol-1-yl)-N-methylethan-1-amine] | 25.1 to 158 | 0.0398 to 0.316
17 | Cc1nc(-c2n[nH]cc2-c2ccc3ncc(N4CCC(N5CCN(C)CC5)CC4)cc3c2)ccc1F [Compound 93, 6-[3-(5-fluoro-6-methyl-2-pyridyl)-1H-pyrazol-4-yl]-3-[4-(4-methylpiperazin-1-yl)-1-piperidyl]quinoline] | 25.1 to 158 | < 0.0316
18 | CNC1CN(c2cnc3ccc(-c4c[nH]nc4-c4cccc(C)n4)nc3c2)C1 [Compound 94, N-methyl-1-[6-[3-(6-methyl-2-pyridyl)-1H-pyrazol-4-yl]-1,5-naphthyridin-3-yl]azetidin-3-amine] | 25.1 to 158 | 0.0398 to 0.316
19 | Cc1cccc(-c2nc3ccccn3c2-c2ccc3ncc(N4CCC(N5CCN(C)CC5)CC4)cc3c2)n1 [Compound 95, 3-[4-(4-methylpiperazin-1-yl)-1-piperidyl]-6-[2-(6-methyl-2-pyridyl)imidazo[1,2-a]pyridin-3-yl]quinoline] | 25.1 to 158 | 0.0398 to 0.316
20 | CNC1(Cn2cc(-c3cnc4ccc(-c5c[nH]nc5-c5ccc(F)c(C)n5)nc4c3)cn2)CC1 [Compound 97, 1-[[4-[6-[3-(5-fluoro-6-methyl-2-pyridyl)-1H-pyrazol-4-yl]-1,5-naphthyridin-3-yl]pyrazol-1-yl]methyl]-N-methyl-cyclopropanamine] | < 20 | < 0.0316
21 | Cc1cccc(-c2[nH]cnc2-c2ccc3ncc(C4=CCC(NC(=O)CSC5CCOC5=O)CC4)cc3c2)n1 (stereo not shown) [Compound 98, N-(4-(6-(5-(6-methylpyridin-2-yl)-1H-imidazol-4-yl)quinolin-3-yl)cyclohex-3-en-1-yl)-2-((2-oxotetrahydrofuran-3-yl)thio)acetamide] | 25.1 to 158 | 0.0398 to 0.316
22 | Cc1cccc(-c2n[nH]cc2-c2ccc3ncc(NC(=O)CCCN4CCN(C(C)C)CC4)cc3n2)n1 [Compound 99, 4-(4-isopropylpiperazin-1-yl)-N-[6-[3-(6-methyl-2-pyridyl)-1H-pyrazol-4-yl]-1,5-naphthyridin-3-yl]butanamide] | 25.1 to 158 | 0.0398 to 0.316
23 | CNCc1ccnc2ccc(-c3nc[nH]c3-c3cccc(C)n3)cc12 [Compound 100, N-methyl-1-[6-[5-(6-methyl-2-pyridyl)-1H-imidazol-4-yl]-4-quinolyl]methanamine] | 25.1 to 158 | 0.398 to 3.16
24 | Cc1cccc(-c2n[nH]cc2-c2ccc3ncc(-c4cn(Cc5c[nH]cn5)nn4)cc3n2)n1 [Compound 101, 7-[1-(1H-imidazol-4-ylmethyl)triazol-4-yl]-2-[3-(6-methyl-2-pyridyl)-1H-pyrazol-4-yl]-1,5-naphthyridine] | 200 to 1260 | < 0.0316
25 | Cc1cccc(-c2n[nH]cc2-c2ccc3ncc(-c4nnc5n4CCN5)cc3n2)n1 [Compound 102, 7-(6,7-dihydro-5H-imidazo[2,1-c][1,2,4]triazol-3-yl)-2-[3-(6-methyl-2-pyridyl)-1H-pyrazol-4-yl]-1,5-naphthyridine] | 1580 to 10000 | 0.0398 to 0.316
26 | Cc1cccc(-c2n[nH]cc2-c2ccc3ncc(N(C)CCN4CCOCC4)cc3n2)n1 [Compound 103, N-methyl-6-[3-(6-methyl-2-pyridyl)-1H-pyrazol-4-yl]-N-(2-morpholinoethyl)-1,5-naphthyridin-3-amine] | 25.1 to 158 | 0.0398 to 0.316
27 | Cc1cccc(-c2[nH]cnc2-c2ccc3ncc(NCCN4CCN(C(C)C)CC4)cc3n2)n1 [Compound 104, N-(2-(4-isopropylpiperazin-1-yl)ethyl)-6-(5-(6-methylpyridin-2-yl)-1H-imidazol-4-yl)-1,5-naphthyridin-3-amine] | 25.1 to 158 | 0.0398 to 0.316
28 | COc1n[nH]c(-c2cccc(C)n2)c1-c1ccc2ncc(-c3cccnc3)cc2n1 [Compound 105, 2-(5-methoxy-3-(6-methylpyridin-2-yl)-1H-pyrazol-4-yl)-7-(pyridin-3-yl)-1,5-naphthyridine] | 25.1 to 158 | 0.0398 to 0.316
29 | CNc1cnc2ccc(-c3c[nH]nc3-c3cccc(C)n3)nc2c1 [Compound 106, N-methyl-6-[3-(6-methyl-2-pyridyl)-1H-pyrazol-4-yl]-1,5-naphthyridin-3-amine] | < 20 | 0.0398 to 0.316
